According to paper PMC5516003, “Betulinic acid is a PPARγ antagonist that improves glucose uptake, promotes osteogenesis and inhibits adipogenesis” (Scientific Reports, 2017):

Key:
[1] = target: T1, PPARγ (Homo sapiens, UniProt P37231); assay: ITC (reverse titration) and X-ray crystal structure; also affinity cartridge and GAL4 antagonist assay (IC50 […]); type: binding
T1 construct: gene PPARG
T1 sequence (P37231 222-505): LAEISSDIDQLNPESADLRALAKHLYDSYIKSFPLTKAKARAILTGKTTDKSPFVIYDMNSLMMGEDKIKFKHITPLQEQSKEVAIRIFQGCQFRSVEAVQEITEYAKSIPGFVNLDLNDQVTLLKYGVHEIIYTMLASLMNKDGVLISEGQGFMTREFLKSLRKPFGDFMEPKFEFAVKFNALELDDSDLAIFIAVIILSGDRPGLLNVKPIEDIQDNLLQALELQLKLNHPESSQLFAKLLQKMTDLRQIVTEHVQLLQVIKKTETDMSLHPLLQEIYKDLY

[2] = target: T2, PPARγ (Homo sapiens, UniProt P37231); assay: immobilized-receptor affinity cartridge (breakthrough shift); also GAL4 transactivation partial agonist, Emax […]; type: binding
T2 construct: gene PPARG; His-tagged PPARγ LBD
T2 sequence (P37231 231-505 limits assumed): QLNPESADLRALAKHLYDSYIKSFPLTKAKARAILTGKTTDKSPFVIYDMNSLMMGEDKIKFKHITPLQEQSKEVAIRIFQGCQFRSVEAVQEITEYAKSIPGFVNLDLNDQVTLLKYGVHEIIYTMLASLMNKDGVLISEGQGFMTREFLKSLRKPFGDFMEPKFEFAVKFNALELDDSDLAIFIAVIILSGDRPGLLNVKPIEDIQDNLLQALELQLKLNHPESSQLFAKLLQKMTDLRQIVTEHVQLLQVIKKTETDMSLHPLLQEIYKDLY

## C=C(C)[C@@H]1CC[C@]2(C(=O)O)CC[C@]3(C)[C@H](CC[C@@H]4[C@@]5(C)CC[C@H](O)C(C)(C)[C@@H]5CC[C@]43C)[C@@H]12 [BA, betulinic acid]
[1]
  Kd: 4 µM

## CC1=CC(=O)c2c(O)cccc2C1=O [plumbagin]
[2]
  immobilized-receptor affinity cartridge (breakthrough shift); also GAL4 transact: only three ligands (i.e., plumbagin, BA and coumarin) interact with the receptor
